Data: US20120277265A1, “NOVEL POLYQUINOLINE DERIVATIVES AND THE THERAPEUTIC USE THEREOF” (CENTRE NATIONAL DE LA RECHERCHE SCIENTIFIQUE (C.N.R.S.), priority 2005, published 2012)

Experiments:
Aβ1-42 = molecular target: T1, Aβ1-42 (Homo sapiens, UniProt P05067); experiment: Inhibition of the precipitation of Aβ1-42 by the addition of ligand (Micro BCA assay of soluble/aggregated peptide); format: biochemical; settings: Aβ1-42 5 μM, pH 7.4; for CuCl2 % soluble Aβ: 20 μM CuCl2, 1 h 37° C. then 1 h with 200 μM ligand; for FeCl3 % soluble Aβ: 20 μM FeCl3, 1 h 37° C. then 1 h with 200 μM ligand; for ZnCl2 % soluble Aβ: 20 μM ZnCl2, 1 h 37° C. then 1 h with 200 μM ligand; for without metal % soluble Aβ: no metal salt, 1 h 37° C. then 1 h with 200 μM ligand
T1 construct: The β-amyloid peptide Aβ1-42 (Aβ1-42) was synthesised, purified (to a purity greater than 95%); made in house; host or cells: chemical peptide synthesis (no expression host)
T1 sequence (P05067 672-713): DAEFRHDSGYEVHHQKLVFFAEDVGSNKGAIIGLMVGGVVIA
Method: After a further hour of incubation, the reaction mixture is centrifuged.
Before use, the water [of Milli-Q Millipore quality] and all buffer solutions were treated on Chelex-100 resin (Biorad) (5 mg/ml) and filtered through 0.2 μm filters (Whatman) to remove potential traces of metal ions or particles.
Working solutions of the peptide were prepared by solubilising 1 mg of lyophilised peptide in 500 μl of water and 500 μl of an aqueous NaOH solution pH=12.0, while stirring in a Thermomixer Comfort (Eppendorf). The peptide preparations are subsequently centrifuged for 10 minutes at 9,000 rpm and the supernatant is used as an “Aβ stock” solution. The concentration of peptide in the “Aβ stock” is determined immediately by colorimetric assay using a Micro BCA Protein Assays kit (Pierce) from standard ranges produced using known amounts of bovine serum albumin (BSA) then the Aβ1-42 peptide solution is aliquoted and frozen rapidly in liquid nitrogen prior to being stored at −20° C. until being used.
Salts are generated by adding one hydrochloric acid equivalent per nitrogen group equivalent of the ligand dissolved in DMSO. After evaporation of the solvent, these salts are dissolved at the desired concentration with DMSO and kept at −20° C. until they are used.
The protocol was established from works by: C. S. Atwood et al., J. Neurochem. […] The final concentrations are given. 500 μl of Aβ1-42 (5 μM is set to aggregate in 20 mM Tris-HCl buffer containing 150 mM NaCl (pH=7.4) for 1 hour at 37° C. while stirring at 1,400 rpm in the absence or presence of metal ions: CuCl2, ZnCl2 or FeCl3 (20 μM). Then 50 pi of ligand to be tested (200 μM) dissolved in DMSO are added and the samples are incubated for 1 further hour at 37° C. while stirring at 1,400 rpm. The samples without ligand also receive 50 μl of DMSO. The samples (final volume=550 μ) are subsequently centrifuged for 20 min at 9,000 rpm, and 500 μl of supernatant are removed. The tube containing the precipitation pellet then receives 450 μl of assay buffer/DMSO mixture (91/9, v/v). […] Quantification is carried out on the basis of standard BSA ranges. The amounts of Aβ1-42 actually contained in the pellet and the supernatant are obtained after a correction due to the presence of a residual portion of supernatant in the pellet-containing fraction.
For the control experiments with derivatives comprising a single quinoline residue, […] of ligand were added because complexes of type L2Cu are conventionally used in these cases.

[1] = Determination of log D7.4 (1-octanol / Tris-HCl buffer); format: physicochemical; settings: 1-octanol / 20 mM Tris-HCl buffer containing 150 mM NaCl (pH = 7.4) (1/1, v/v)
Method: The ligand (2.0 mg) is dissolved in 2 ml of 1-octanol then 2 ml of 20 mM Tris-HCl buffer, pH=7.4 containing 150 mM NaCl are added. After mixing in a vortex for 3 min at ambient temperature, followed by centrifugation for 5 min at 9,000 rpm, the concentration of the ligand in each phase is determined by UV-visible spectrophotometry. The 1-octanol fractions are thus redivided until reproducible values of coefficient of division of obtained. This coefficient is expressed as the decimal logarithm of [(the concentration of ligand contained in the 1-octanol phase)/(the concentration of ligand contained in the buffered aqueous phase)]=log D7.4. Measurements were taken three times.

[2] = Hydrogen peroxide produced by Aβ1-42 in the presence of CuCl2, ascorbate, air and ligand (Amplex Red H2O2/HRP); format: biochemical; settings: CuCl2 0.4 μM, ascorbate 10 μM, air
Method: (§1) FIG. 11: Variation in H2O2 production by copper complexes of Aβ1-42 peptide as a function of the Cu(II)/Aβ stoichiometry. Experiments are carried out for 5 minutes in a sodium phosphate buffer (pH=7.4) in the presence 0.4 μM CuCl2, 10 μM ascorbate and air with or without 0.4 μM of 3 or 7. The H2O2 released is quantified by means of an Amplex-Red H2O2/HRP Assay kit.
(§2) The final concentrations are given. The reactions were carried out in the dark in mM sodium phosphate buffer (pH=7.4). Aβ1-42 (0.2 μM) and CuCl2 (0.4 μM) were pre-incubated for 1 hour at 37° C. while stirring at 1,400 rpm in 375 μl of buffer. Then 2 μl of a solution of ligand to be investigated (0.2; 0.4 or 0.8 μM) in DMSO were added. After incubation for a further hour, 2 μl of an aqueous sodium ascorbate solution (10 μM) were added and incubation was continued for 5 min while stirring. The amount of H2O2 produced is then quantified using an Amplex Red H2O2/HRP Assay Kit (Molecular Probes) while adding a volume of assay reagent to the samples, then incubating them for 1 hour at 37° C. while stirring at 500 rpm. […] Quantification is carried out on the basis of standard curves obtained with known amounts of H2O2.
(§3) The figures in the tables correspond to the amount of H2O2 (expressed in nanomoles) added using an Amplex Red H2O2/HRP Assay kit.

[3] = molecular target: T2, copper complexes of Aβ1-42 peptide (Homo sapiens, UniProt P05067); experiment: as above; format: biochemical; settings: CuCl2 0.4 μM, ascorbate 10 μM, air
T2 construct: The β-amyloid peptide Aβ1-42 (Aβ1-42) was synthesised, purified (to a purity greater than 95%); made in house; host or cells: chemical peptide synthesis (no expression host)
T2 sequence (P05067 672-713 limits assumed, one chain of several): as the sequence (P05067 672-713) above
Method: as §1, §2, §3

[4] = molecular target: T2, copper complexes of Aβ1-42 peptide; experiment: Stability of H2O2 during the H2O2 production inhibition experiments (known amount of H2O2 added); format: biochemical; settings: Aβ1-42 0.2 μM, Cu(II) 0.4 μM, ascorbate 10 μM, ligand 0.4 μM
Method: (§4) The final concentrations are given. The reactions were carried out in the dark in mM sodium phosphate buffer (pH=7.4). Aβ1-42 (0.2 μM) and CuCl2 (0.4 μM) were pre-incubated for 1 hour at 37° C. while stirring at 1,400 rpm in 375 μl of buffer. Then 2 μl of a solution of ligand to be investigated (0.2; 0.4 or 0.8 μM) in DMSO were added. After incubation for a further hour, 2 μl of an aqueous sodium ascorbate solution (10 μM) were added and incubation was continued for 5 min while stirring. The amount of H2O2 produced is then quantified using an Amplex Red H2O2/HRP Assay Kit (Molecular Probes) while adding a volume of assay reagent to the samples, then incubating them for 1 hour at 37° C. while stirring at 500 rpm. H2O2 is then detected by spectrophotometry at 563 nm. Quantification is carried out on the basis of standard curves obtained with known amounts of H2O2.
(§5) Experiments were also carried out in the presence of a known amount of H2O2, added just before or just after the addition of sodium ascorbate, in order to investigate the stability of H2O2 under the experimental conditions employed.

[5] = test system: copper complexes of Aβ1-42 peptide; experiment: as above; format: biochemical; settings: for theoretical value of H2O2 if there is no degradation (in parentheses): ascorbate, ligand; for H2O2 assayed: no Aβ1-42, Cu(II) 0.4 μM, ascorbate 10 μM, ligand 0.4 μM
Method: as §4, §5

[6] = 3.0 nanomoles H2O2 added just before the ascorbate

| Structure (SMILES) | CuCl2 % soluble Aβ (Aβ1-42) [%] | FeCl3 % soluble Aβ (Aβ1-42) [%] | ZnCl2 % soluble Aβ (Aβ1-42) [%] | without metal % soluble Aβ (Aβ1-42) [%] | logD at 3 min [1] | amount of H2O2, 0.2 μM Aβ1-42 Cu/Aβ = 2 ([3]; ligand 1 eq/Cu(II) (0.4 μM)) [nmol] | amount of H2O2, 0.5 μM Aβ1-42 Cu/Aβ = 0.75 ([3]; ligand 1 eq/Cu(II) (0.4 μM)) [nmol] | H2O2 assayed [4, 6] [nmol] | H2O2 assayed ([4]; no H2O2 added) [nmol] | amount of H2O2, without Aβ1-42 ([2]; ligand 1 eq/Cu(II) (0.4 μM)) [nmol] | amount of H2O2, without Aβ1-42 ([2]; ligand 2 eq/Cu(II)) [nmol] | amount of H2O2, 0.2 μM Aβ1-42 Cu/Aβ = 2 ([3]; ligand 2 eq/Cu(II)) [nmol] | amount of H2O2, 0.5 μM Aβ1-42 Cu/Aβ = 0.75 ([3]; ligand 2 eq/Cu(II)) [nmol] | theoretical value of H2O2 if there is no degradation (in parentheses) ([5]; Aβ1-42 0.2 μM, Cu(II), 3.0 nanomoles H2O2 added just before the ascorbate) [nmol] | H2O2 assayed [5, 6] | H2O2 assayed ([5]; no H2O2 added) [nmol] | theoretical value of H2O2 if there is no degradation (in parentheses) ([5]; no Aβ1-42, Cu(II), 3.0 nanomoles H2O2 added just before the ascorbate) |
| --- | --- | --- | --- | --- | --- | --- | --- | --- | --- | --- | --- | --- | --- | --- | --- | --- | --- |
| Nc1cccc2cccnc12 [8-aminoquinoline, reference compound] | 40 | 58 | 67 | 66 ± 3 | 1.9 ± 0.1 | – | – | – | – | – | – | – | – | – | – | – | – |
| Cc1ccc2cccc(O)c2n1 [8-hydroxyquinaldine, reference compound] | 52 | 51 | 62 | 69 | 2.4 ± 0.1 | – | – | – | – | – | – | – | – | – | – | – | – |
| Oc1cccc2cccnc12 [8-hydroxyquinoline, reference compound] | 70 ± 3 | 80 | 88 | 85 | 2.1 ± 0.1 | 0.69 | 0.75 | – | – | 2.02 | 0.62 | 0.71 ± 0.05 | 0.62 | – | – | – | – |
| Oc1cccc2ccc(Cc3ccc4cccc(O)c4n3)nc12 [Compound 1, 2,2′-methanediyl-bis(8-hydroxyquinoline)] | 60 ± 5 | 61 | 63 | 63 ± 4 | 3.3 ± 0.1 | 0.75 ± 0.11 | 0.76 | – | – | 0.54 | – | – | – | – | – | – | – |
| Oc1ccc(Cl)c2ccc(Cc3ccc4c(Cl)ccc(O)c4n3)nc12 [Compound 2, 2,2′-methanediyl-bis(5-chloro-8-hydroxyquinoline)] | 45 ± 5 | 58 | 57 | 66 | 3.5 ± 0.1 | 0.80 ± 0.23 | 0.61 | – | – | 0.56 | – | – | – | – | – | – | – |
| Oc1cccc2ccc(CC(Cc3ccc4cccc(O)c4n3)c3ccc4cccc(O)c4n3)nc12 [Compound 11, 2,2′,2″-(1,2,3-Propanetriyl)-tris(8-hydroxyquinoline)] | 48 | 43 | 45 | 48 | 3.7 ± 0.1 | – | – | – | – | – | – | – | – | – | – | – | – |

Second part, led by results:

| CuCl2 % soluble Aβ (Aβ1-42) [%] | FeCl3 % soluble Aβ (Aβ1-42) [%] | ZnCl2 % soluble Aβ (Aβ1-42) [%] | without metal % soluble Aβ (Aβ1-42) [%] | logD at 3 min [1] | amount of H2O2, 0.2 μM Aβ1-42 Cu/Aβ = 2 ([3]; ligand 1 eq/Cu(II) (0.4 μM)) [nmol] | amount of H2O2, 0.5 μM Aβ1-42 Cu/Aβ = 0.75 ([3]; ligand 1 eq/Cu(II) (0.4 μM)) [nmol] | H2O2 assayed [4, 6] [nmol] | H2O2 assayed ([4]; no H2O2 added) [nmol] | Structure (SMILES) | amount of H2O2, without Aβ1-42 ([2]; ligand 1 eq/Cu(II) (0.4 μM)) [nmol] | amount of H2O2, without Aβ1-42 ([2]; ligand 2 eq/Cu(II)) [nmol] | amount of H2O2, 0.2 μM Aβ1-42 Cu/Aβ = 2 ([3]; ligand 2 eq/Cu(II)) [nmol] | amount of H2O2, 0.5 μM Aβ1-42 Cu/Aβ = 0.75 ([3]; ligand 2 eq/Cu(II)) [nmol] | theoretical value of H2O2 if there is no degradation (in parentheses) ([5]; Aβ1-42 0.2 μM, Cu(II), 3.0 nanomoles H2O2 added just before the ascorbate) [nmol] | H2O2 assayed [5, 6] | H2O2 assayed ([5]; no H2O2 added) [nmol] | theoretical value of H2O2 if there is no degradation (in parentheses) ([5]; no Aβ1-42, Cu(II), 3.0 nanomoles H2O2 added just before the ascorbate) |
| --- | --- | --- | --- | --- | --- | --- | --- | --- | --- | --- | --- | --- | --- | --- | --- | --- | --- |
| 45 ± 3 | 51 | 57 | 79 ± 3 | 1.8 ± 0.1 | 1.99 | 0.78 | 4.9 | 1.99 ± 0.11 | Cc1ccc2cccc(NCCNc3cccc4ccc(C)nc34)c2n1 [Compound 14, N,N′-bis(2-methyl-8-quinolinyl)-1,2-ethanediamine] | 0.74 | – | – | – | 5.0 | – | – | – |
| 35 | 42 | 23 | 72 | 2 ± 0.1 | 1.02 | – | – | – | c1cnc2c(Oc3cccc4cccnc34)cccc2c1 [Compound 15, 8,8′-Oxydiquinoline] | – | – | – | – | – | – | – | – |
| 48 ± 3 | 44 ± 6 | 50 | 53 | – | 0.70 | – | – | – | COc1ccc2ccc(Cc3ccc4ccc(OC)c(O)c4n3)nc2c1O.Cl.Cl [Compound 16, 2,2′-(methanediyl)-bis(7-methyloxy-8-hydroxy-2-quinolinium) dichloride] | – | – | – | – | – | – | – | – |
| 46 ± 3 | 49 | 62 ± 5 | 66 | 3 ± 0.1 | 0.47 | 0.45 | – | – | O=C(Nc1ccc2cccc(O)c2n1)c1ccc2cccc(O)c2n1 [Compound 18, 8-hydroxy-N-(8-hydroxy-2-quinolinyl)-2-quinolinecarboxamide] | 0.47 | – | – | – | – | 3.5 (3.5) nanomoles | 0.47 | 3.5 (3.5) nanomoles |
| 21 | 38 | 21 | 64 | 2.6 ± 0.1 | 0.62 | 0.47 | – | – | O=C(Nc1cccc2cccnc12)c1cccc2cccnc12 [Compound 24, N-8-quinolinyl-8-quinoline carboxamide] | 0.49 | – | – | – | – | – | – | – |
